Results taken from US20250230193A1, “CYCLIC COMPOUND HAVING SELECTIVE KRAS INHIBITORY EFFECT ON HRAS AND NRAS” (CHUGAI SEIYAKU KABUSHIKI KAISHA, priority 2022, published 2025).
*1 amine or outer side, *2 acyl side, *3 side chain or, on linkers, in order; H or OH if unused. Where a SMILES comes first, the peptide text is derived from it. Bridges are numbered along the chain shown (N, C = ends). [ ]: non-standard residue; d: D form. The star is where a group is joined. hPhe(3,5-F2-4-CF3) = N[C@@H](CCc1cc(F)c(C(F)(F)F)c(F)c1)C(=O)O; NPrPhe(4-CF3) = CCCN[C@@H](Cc1ccc(C(F)(F)F)cc1)C(=O)O; NMeAbu(4,4,4-F3) = CN[C@@H](CC(F)(F)F)C(=O)O; NMeGly(cPent) = CN[C@H](C(=O)O)C1CCCC1; Ac4c(3,3-F2) = NC1(C(=O)O)CC(F)(F)C1; X13 = CCC[C@](C)(N[*:1])C(=O)[*:2]; αMeCha = C[C@](N)(CC1CCCCC1)C(=O)O; Nva(3-Et) = CCC(CC)[C@H](N)C(=O)O; NMeD = CN[C@@H](CC(=O)O)C(=O)O; Ac4c(3-oxa) = NC1(C(=O)O)COC1; NMeL = CN[C@@H](CC(C)C)C(=O)O; αMeL = CC(C)C[C@](C)(N)C(=O)O; αMeV = CC(C)[C@](C)(N)C(=O)O; αMeS = C[C@](N)(CO)C(=O)O; Iva = CC[C@](C)(N)C(=O)O; Morpholide = C1CN(*)CCO1; Ac5c = NC1(C(=O)O)CCCC1; Aze = O=C(O)[C@@H]1CCN1; Sar = CNCC(=O)O; tBu = CC(C)(C)*; Allyl = C=CC*

Key:
[1] = target: GDP-bound HRAS wild-type protein (Homo sapiens, UniProt P01112); test: Binding to HRAS by surface plasmon resonance (SPR), Single Cycle Kinetics; conditions: KD ratio HRAS/KRAS, SPR
[2] = target: GDP-bound NRAS wild-type protein (Homo sapiens, UniProt P01111); test: Binding to NRAS by surface plasmon resonance (SPR), Single Cycle Kinetics; conditions: KD ratio NRAS/KRAS, SPR
Sequence of GDP-bound NRAS wild-type protein (P01111 whole entry): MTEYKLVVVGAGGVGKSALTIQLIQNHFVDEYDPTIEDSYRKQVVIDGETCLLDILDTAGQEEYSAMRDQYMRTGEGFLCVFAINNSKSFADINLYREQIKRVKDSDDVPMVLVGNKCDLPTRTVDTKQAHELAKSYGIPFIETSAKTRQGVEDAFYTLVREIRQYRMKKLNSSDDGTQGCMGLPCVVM

Sequence of GDP-bound HRAS wild-type protein (P01112 whole entry): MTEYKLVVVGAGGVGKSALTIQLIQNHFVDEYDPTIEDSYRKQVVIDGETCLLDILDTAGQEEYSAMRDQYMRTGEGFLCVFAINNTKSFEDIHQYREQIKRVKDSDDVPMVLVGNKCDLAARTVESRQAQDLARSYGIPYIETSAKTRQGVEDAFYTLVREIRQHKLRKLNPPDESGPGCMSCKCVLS

| Compound | HRAS/KRAS (ratio of KD value with respect to GDP-bound HRAS wild-type protein to KD value with respect to KRAS) [1] | NRAS/KRAS (ratio of KD value with respect to GDP-bound NRAS wild-type protein to KD value with respect to KRAS) [2] |
| --- | --- | --- |
| CCCN1C(=O)[C@@H]2CCN2C(=O)CN(C)C(=O)[C@H]([C@@H](C)CC)NC(=O)[C@H](CC(C)C)N(C)C(=O)C[C@@H](C(=O)N2CCOCC2)N(C)C(=O)[C@H](C2CCCC2)N(C)C(=O)[C@](C)(C(C)C)NC(=O)[C@@H]2CCCN2C(=O)[C@H](CCc2cc(F)c(C(F)(F)F)c(F)c2)NC(=O)CN(C)C(=O)[C@@H]1Cc1ccc(C(F)(F)F)cc1 [PP0792] ([NMeL]I[Sar][Aze][NPrPhe(4-CF3)][Sar][hPhe(3,5-F2-4-CF3)]P[αMeV][NMeGly(cPent)][NMeD]-Morpholide; lactam N-11) | B (a compound having 3 or more and less than 10 is denoted as B) | C (A compound having a KD ratio of 0.1 or more and less than 3 is denoted as C) |
| CCCN1C(=O)[C@@H]2CCN2C(=O)CN(C)C(=O)[C@H]([C@@H](C)CC)NC(=O)[C@H](CC(C)C)N(C)C(=O)C[C@@H](C(=O)N2CCOCC2)N(C)C(=O)[C@H](C2CCCC2)N(C)C(=O)[C@](C)(CCC)NC(=O)[C@@H]2CCCN2C(=O)[C@H](CCc2cc(F)c(C(F)(F)F)c(F)c2)NC(=O)CN(C)C(=O)[C@@H]1Cc1ccc(C(F)(F)F)cc1 [PP0794] ([NMeL]I[Sar][Aze][NPrPhe(4-CF3)][Sar][hPhe(3,5-F2-4-CF3)]P[X13][NMeGly(cPent)][NMeD]-Morpholide; lactam N-11) | B (a compound having 3 or more and less than 10 is denoted as B) | C (A compound having a KD ratio of 0.1 or more and less than 3 is denoted as C) |
| CCCN1C(=O)[C@@H]2CCN2C(=O)CN(C)C(=O)[C@H]([C@@H](C)CC)NC(=O)[C@H](CC(C)C)N(C)C(=O)C[C@@H](C(=O)N2CCOCC2)N(C)C(=O)[C@H](C2CCCC2)N(C)C(=O)[C@](C)(CC(C)C)NC(=O)[C@@H]2CCCN2C(=O)[C@H](CCc2cc(F)c(C(F)(F)F)c(F)c2)NC(=O)CN(C)C(=O)[C@@H]1Cc1ccc(C(F)(F)F)cc1 [PP0795] ([NMeL]I[Sar][Aze][NPrPhe(4-CF3)][Sar][hPhe(3,5-F2-4-CF3)]P[αMeL][NMeGly(cPent)][NMeD]-Morpholide; lactam N-11) | B (a compound having 3 or more and less than 10 is denoted as B) | C (A compound having a KD ratio of 0.1 or more and less than 3 is denoted as C) |
| CCCN1C(=O)[C@@H]2CCN2C(=O)CN(C)C(=O)[C@H]([C@@H](C)CC)NC(=O)[C@H](CC(C)C)N(C)C(=O)C[C@@H](C(=O)N2CCOCC2)N(C)C(=O)[C@H](C2CCCC2)N(C)C(=O)[C@](C)(CC2CCCCC2)NC(=O)[C@@H]2CCCN2C(=O)[C@H](CCc2cc(F)c(C(F)(F)F)c(F)c2)NC(=O)CN(C)C(=O)[C@@H]1Cc1ccc(C(F)(F)F)cc1 [PP0796] ([NMeL]I[Sar][Aze][NPrPhe(4-CF3)][Sar][hPhe(3,5-F2-4-CF3)]P[αMeCha][NMeGly(cPent)][NMeD]-Morpholide; lactam N-11) | B (a compound having 3 or more and less than 10 is denoted as B) | C (A compound having a KD ratio of 0.1 or more and less than 3 is denoted as C) |
| CCCN1C(=O)[C@@H]2CCN2C(=O)CN(C)C(=O)[C@H]([C@@H](C)CC)NC(=O)[C@H](CC(C)C)N(C)C(=O)C[C@@H](C(=O)N2CCOCC2)N(C)C(=O)[C@H](C2CCCC2)N(C)C(=O)[C@](C)(COC)NC(=O)[C@@H]2CCCN2C(=O)[C@H](CCc2cc(F)c(C(F)(F)F)c(F)c2)NC(=O)CN(C)C(=O)[C@@H]1Cc1ccc(C(F)(F)F)cc1 [PP0798] ([NMeL]I[Sar][Aze][NPrPhe(4-CF3)][Sar][hPhe(3,5-F2-4-CF3)]P[αMeS](Me)[NMeGly(cPent)][NMeD]-Morpholide; lactam N-11) | B (a compound having 3 or more and less than 10 is denoted as B) | C (A compound having a KD ratio of 0.1 or more and less than 3 is denoted as C) |
| C=CCOC[C@]1(C)NC(=O)[C@@H]2CCCN2C(=O)[C@H](CCc2cc(F)c(C(F)(F)F)c(F)c2)NC(=O)CN(C)C(=O)[C@H](Cc2ccc(C(F)(F)F)cc2)N(CCC)C(=O)[C@@H]2CCN2C(=O)CN(C)C(=O)[C@H]([C@@H](C)CC)NC(=O)[C@H](CC(C)C)N(C)C(=O)C[C@@H](C(=O)N2CCOCC2)N(C)C(=O)[C@H](C2CCCC2)N(C)C1=O [PP0799] ([NMeL]I[Sar][Aze][NPrPhe(4-CF3)][Sar][hPhe(3,5-F2-4-CF3)]P[αMeS](Allyl)[NMeGly(cPent)][NMeD]-Morpholide; lactam N-11) | B (a compound having 3 or more and less than 10 is denoted as B) | C (A compound having a KD ratio of 0.1 or more and less than 3 is denoted as C) |
| CCCN1C(=O)[C@@H]2CCN2C(=O)CN(C)C(=O)[C@H]([C@@H](C)CC)NC(=O)[C@H](CC(C)C)N(C)C(=O)C[C@@H](C(=O)N2CCOCC2)N(C)C(=O)[C@H](C2CCCC2)N(C)C(=O)[C@](C)(COC(C)(C)C)NC(=O)[C@@H]2CCCN2C(=O)[C@H](CCc2cc(F)c(C(F)(F)F)c(F)c2)NC(=O)CN(C)C(=O)[C@@H]1Cc1ccc(C(F)(F)F)cc1 [PP0800] ([NMeL]I[Sar][Aze][NPrPhe(4-CF3)][Sar][hPhe(3,5-F2-4-CF3)]P[αMeS](tBu)[NMeGly(cPent)][NMeD]-Morpholide; lactam N-11) | B (a compound having 3 or more and less than 10 is denoted as B) | C (A compound having a KD ratio of 0.1 or more and less than 3 is denoted as C) |
| CCCN1C(=O)[C@@H]2CCN2C(=O)CN(C)C(=O)[C@H]([C@@H](C)CC)NC(=O)[C@H](CC(C)C)N(C)C(=O)C[C@@H](C(=O)N2CCOCC2)N(C)C(=O)[C@H](C2CCCC2)N(C)C(=O)C2(COC2)NC(=O)[C@@H]2CCCN2C(=O)[C@H](CCc2cc(F)c(C(F)(F)F)c(F)c2)NC(=O)CN(C)C(=O)[C@@H]1Cc1ccc(C(F)(F)F)cc1 [PP0801] ([NMeL]I[Sar][Aze][NPrPhe(4-CF3)][Sar][hPhe(3,5-F2-4-CF3)]P[Ac4c(3-oxa)][NMeGly(cPent)][NMeD]-Morpholide; lactam N-11) | B (a compound having 3 or more and less than 10 is denoted as B) | C (A compound having a KD ratio of 0.1 or more and less than 3 is denoted as C) |
| CCCN1C(=O)[C@@H]2CCN2C(=O)CN(C)C(=O)[C@H]([C@@H](C)CC)NC(=O)[C@H](CC(C)C)N(C)C(=O)C[C@@H](C(=O)N2CCOCC2)N(C)C(=O)[C@H](C2CCCC2)N(C)C(=O)C2(CC(F)(F)C2)NC(=O)[C@@H]2CCCN2C(=O)[C@H](CCc2cc(F)c(C(F)(F)F)c(F)c2)NC(=O)CN(C)C(=O)[C@@H]1Cc1ccc(C(F)(F)F)cc1 [PP0802] ([NMeL]I[Sar][Aze][NPrPhe(4-CF3)][Sar][hPhe(3,5-F2-4-CF3)]P[Ac4c(3,3-F2)][NMeGly(cPent)][NMeD]-Morpholide; lactam N-11) | B (a compound having 3 or more and less than 10 is denoted as B) | C (A compound having a KD ratio of 0.1 or more and less than 3 is denoted as C) |
| CCCN1C(=O)[C@@H]2CCN2C(=O)CN(C)C(=O)[C@H]([C@@H](C)CC)NC(=O)[C@H](CC(C)C)N(C)C(=O)C[C@@H](C(=O)N2CCOCC2)N(C)C(=O)[C@H](CC(F)(F)F)N(C)C(=O)C2(CCCC2)NC(=O)[C@@H]2CCCN2C(=O)[C@H](CCc2cc(F)c(C(F)(F)F)c(F)c2)NC(=O)CN(C)C(=O)[C@@H]1Cc1ccc(C(F)(F)F)cc1 [PP0803] ([NMeL]I[Sar][Aze][NPrPhe(4-CF3)][Sar][hPhe(3,5-F2-4-CF3)]P[Ac5c][NMeAbu(4,4,4-F3)][NMeD]-Morpholide; lactam N-11) | B (a compound having 3 or more and less than 10 is denoted as B) | C (A compound having a KD ratio of 0.1 or more and less than 3 is denoted as C) |
| CCCN1C(=O)[C@@H]2CCN2C(=O)CN(C)C(=O)[C@H](C(CC)CC)NC(=O)[C@H](CC(C)C)N(C)C(=O)C[C@@H](C(=O)N2CCOCC2)N(C)C(=O)[C@H](C2CCCC2)N(C)C(=O)C2(CCCC2)NC(=O)[C@@H]2CCCN2C(=O)[C@H](CCc2cc(F)c(C(F)(F)F)c(F)c2)NC(=O)CN(C)C(=O)[C@@H]1Cc1ccc(C(F)(F)F)cc1 [PP0804] ([NMeL][Nva(3-Et)][Sar][Aze][NPrPhe(4-CF3)][Sar][hPhe(3,5-F2-4-CF3)]P[Ac5c][NMeGly(cPent)][NMeD]-Morpholide; lactam N-11) | B (a compound having 3 or more and less than 10 is denoted as B) | C (A compound having a KD ratio of 0.1 or more and less than 3 is denoted as C) |
| CCCN1C(=O)CN(C)C(=O)CN(C)C(=O)[C@H]([C@@H](C)CC)NC(=O)[C@H](CC(C)C)N(C)C(=O)C[C@@H](C(=O)N(C)C)N(C)C(=O)[C@H](C2CCCC2)N(C)C(=O)[C@](C)(CC)NC(=O)[C@@H]2CCCN2C(=O)[C@H](CCc2cc(F)c(C(F)(F)F)c(F)c2)NC(=O)CN(C)C(=O)[C@@H]1Cc1ccc(C(F)(F)F)cc1 [PP0805] ([NMeL]I[Sar][Sar][NPrPhe(4-CF3)][Sar][hPhe(3,5-F2-4-CF3)]P[Iva][NMeGly(cPent)][NMeD]-NMe2; lactam N-11) | C (A compound having a KD ratio of 0.1 or more and less than 3 is denoted as C) | B (a compound having 3 or more and less than 10 is denoted as B) |
